The record followed here is US20240139167A1, “LYSOSOME-ASSOCIATED MEMBRANE PROTEIN TARGETING COMPOUNDS AND USES THEREOF” (HADASIT MEDICAL RESEARCH SERVICES AND DEVELOPMENT LTD., priority 2021, published 2024).

In one series the test system is APBD primary fibroblasts. Briefly: Autophagic flux (LC3II/LC3I with lysosomal inhibitors, p62). The series is classed as cell-based, human. The text has this: (§1) FIGS. 6A-6E include bar graphs of autophagic flux, determined by the extent of lysosomal inhibitors-dependent increase in the ratio of lipidated to non-lipidated LC3 (LC3II/LC3I) (6A); representative TEM images of liver tissue from 9.5 month old Gbe^ys/ys mice treated with Compound 11, or 5% DMSO vehicle (6B), G: Glycogen (alpha particles) and polyglucosan (structures with variable electron densities), L: Lysosomes, M: Mitochondria; right panel: lysosomal glycogen stain was quantified by ImageJ “count particle” tool; micrograph of LAMP1 knocked down and control APBD primary skin fibroblasts treated or not with Compound 1 and lysosomal inhibitors (LI) and quantification of 3 experiments and results of Student's t-tests. *, p<0.1; **, p<0.05; ***, p<0.01 (6C); graphs of lysosomal pH changes determined in APBD primary fibroblasts transduced with lentiviruses encoding for GFP or GFP-shLAMP1 and treated or not with Compound 1 for 24 h and confocal microscope images of cells treated with Lysosensor and stained for PAS (6D); and bar graph of ATP production rate assay in LAMP1-KD and GFP (Control) cells treated for 24 h (chronic) or on assay (acute) with Compound 1 (6E).

For series [1], the system named is LAMP1-KD and control APBD fibroblasts. Briefly: ATP Rate Assay in LAMP1-KD and control cells. The series is classed as cell-based, human.
Excerpt: as §1
To test the effect of LAMP1-KD and Compound 1 on fuel utilization, the inventors again used the ATP Rate Assay (FIGS. 4A-4D) in LAMP1-KD and control APBD fibroblasts acutely or chronically treated with Compound 1.

The next series deals with Gbe^ys/ys mice. Briefly: Blood metabolic panel in Gbe^ys/ys mice. The series is classed as in vivo. Here is the method:
FIGS. 3A-3I include a graph of the effect of Compound 1 on in vivo metabolism; mice were monitored by the Promethion High-Definition Behavioral Phenotyping System (Sable Instruments, Inc.) over a 24 hr period. Effective mass was calculated by power of 0.75. Data are mean±SEM from n=11 9 months old mice in the wt. control vehicle arm, n=6 9 months old mice in the GBE^ys/ys vehicle arm and n=7 9 months old mice in the Gbe^ys/ys 144DG11 (Compound 1)-treated arm. All injections were from the age of 4 months. […] Blood metabolic panel based on n=5, 9.5 months old mice treated as indicated (3I). Blood glucose was increased, and blood triglycerides decreased in Gbe^ys/ys […] by Compound 1 (p<0.05, Student's t-tests). *p<0.05 v wt. controls, #p<0.05 v GBE^ys/ys vehicle treated mice;
The inventors further tested whether Compound 1 is able to correct the hypoglycemia and hyperlipidemia observed in Gbe^ys/ys mice. Such an effect is expected from an agent capable of inducing the catabolism of liver glycogen with an ensuing rise in blood glucose. […] Muscle (creatine kinase) and liver (alanine transferase) functions were not affected by this treatment (FIG. 3I).

Regarding `COCCN(Cc1sccc1C)C(=O)c1cc(C)nc(O)c1` [Compound 1], the “autophagic flux (sensitivity of LC3ii/LC3i ratio to lysosomal inhibitors)” value with APBD primary fibroblasts is listed as “increased autophagic flux”. Besides, the “level of the autophagy substrate p62” value in the series with APBD primary fibroblasts was “lowering the level of the autophagy substrate p62”. For the same molecule, the ATP production result in series [1] (LAMP1-KD cells, non-starved, chronic and acute) was “significantly increased total and respiratory ATP production”; in series [1] (LAMP1-KD cells, starved, acute) it was “increased both respiratory and glycolytic ATP”; in series [1] (LAMP1-KD cells, starved, chronic) it was “only respiratory ATP production increased”; in series [1] (control cells, non-starved) it was “only slightly influenced ATP production, and even acutely decreased it”; in series [1] (control cells, starved, acute), “only increased respiratory ATP production”; in series [1] (control cells, starved, chronic) it was “No significant effect”. Besides, the hypoglycemia and hyperlipidemia result with Gbe^ys/ys mice (9.5 months old mice) is “corrected to control levels”. Also, the “muscle (creatine kinase) and liver (alanine transferase) functions” value with Gbe^ys/ys mice (9.5 months old mice) is listed as “not affected”. For the same molecule, the blood glucose result in the series with Gbe^ys/ys mice (9.5 months old, p<0.05) is listed as “increased”. Also, in the series with Gbe^ys/ys mice (9.5 months old, p<0.05), the blood triglycerides entry is recorded as “decreased”.
